Experimental data from patent publication US6566380B2, “Potassium channel inhibitors” (ICAgen, Inc., priority 2000, dated 2003).
Like-named read-outs stand apart in the source and are kept apart here.

Biological target: Kv1.5 potassium channel (Homo sapiens, UniProt P22460)
Assay: Electrophysiological studies: whole-cell patch clamp of Kv1.5 currents in CHO cells
Format: cell-based
Details: Chinese hamster ovary cells stably expressing Kv1.5, whole-cell voltage clamp
Method: Electrophysiological recordings of potassium currents in Chinese hamster ovary cells stably expressing the gene construct for the Kv1.5 potassium channel subunit were performed using the whole cell configuration of the patch clamp technique (Hamill et al., Pflugers Archiv 391:85, 1981). Cell lines expressing Kv1.5 were prepared using standard techniques known to those skilled in the art. Cells were plated on glass coverslips at a density of 2×10^4 cells/coverslip and used within 24-48 hours. Solutions used for electrophysiological recordings were as follows. Extracellular bathing solutions typically contain (in mM) 132 NaCl, 5.4 KCl, 1.8 CaCl2, 0.8 MgCl2, 10 HEPES, 5 glucose at pH 7.3. […] The coverslips were placed in a small chamber (volume ˜200 μl) on the mechanical stage of an inverted microscope and perfused (approximately 2 ml/min) with extracellular recording solution. Drug was applied using a series of narrow-bore glass capillary tubes (inner diameter ˜100 μm) positioned approximately 200 μm from the cell.
As soon as the current recording were stable, a compound representative of the present invention was superfused over the cell until steady-state block was observed. Using this technique, the effects of the compound on peak and steady-state current were determined at progressively increasing compound concentrations.
The testing results of selected compounds from Table 2 using this assay and the techniques described above are reported in Table 3 as the percent inhibition of Kv1.5 potassium channel currents at a single concentration of 0.1 μM.

[1] = read-out: Peak current inhibition at 0.1 μM (%)
[2] = read-out: Steady-state Current Inhibition at 0.1 μM (%)

Kv1.5 potassium channel, sequence (P22460 whole entry): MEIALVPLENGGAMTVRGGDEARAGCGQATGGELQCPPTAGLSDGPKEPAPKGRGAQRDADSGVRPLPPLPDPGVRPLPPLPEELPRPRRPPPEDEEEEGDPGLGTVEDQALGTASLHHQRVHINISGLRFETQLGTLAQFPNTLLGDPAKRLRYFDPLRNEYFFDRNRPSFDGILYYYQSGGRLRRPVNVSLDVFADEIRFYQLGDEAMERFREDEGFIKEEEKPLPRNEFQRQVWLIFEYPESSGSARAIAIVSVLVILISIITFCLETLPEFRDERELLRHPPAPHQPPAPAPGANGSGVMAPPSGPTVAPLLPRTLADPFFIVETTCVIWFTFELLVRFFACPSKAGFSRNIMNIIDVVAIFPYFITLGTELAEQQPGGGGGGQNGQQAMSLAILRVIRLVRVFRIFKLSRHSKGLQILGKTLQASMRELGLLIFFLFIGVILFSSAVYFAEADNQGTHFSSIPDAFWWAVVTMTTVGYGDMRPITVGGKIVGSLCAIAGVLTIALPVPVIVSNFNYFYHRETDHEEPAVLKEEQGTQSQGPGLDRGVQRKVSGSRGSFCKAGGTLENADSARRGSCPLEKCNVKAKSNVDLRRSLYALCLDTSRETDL

Structure (SMILES) | inhibition at 0.1 µM [1] | inhibition at 0.1 µM [2]
CC(CC(=O)N(Cc1nccn1C)c1ccc2c(c1)C(NS(=O)(=O)c1ccc(F)cc1)CCC2)c1ccccc1 (centres unmarked) [Example 1] | 42% | 67%
C[C@H](CC(=O)N(Cc1nccn1C)c1ccc2c(c1)[C@@H](NS(=O)(=O)c1cccc(Cl)c1)CCC2)c1ccccc1 [Example 2] | 86% | 96%
C[C@H](CC(=O)N(Cc1nccn1C)c1ccc2c(c1)[C@@H](NS(=O)(=O)c1ccc(F)c(Cl)c1)CCC2)c1ccccc1 [Example 3] | 84% | 93%
C[C@H](CC(=O)N(Cc1nccn1C)c1ccc2c(c1)[C@@H](NS(=O)(=O)c1ccccc1)CCC2)c1ccccc1 [Example 4] | 86% | 89%
C[C@@H](CC(=O)N(Cc1nccn1C)c1ccc2c(c1)[C@@H](NS(=O)(=O)c1ccccc1)CCC2)c1ccccc1 [Example 5] | 45% | 78%
C[C@@H](CC(=O)N(Cc1nccn1C)c1ccc2c(c1)[C@@H](NS(=O)(=O)c1cccc(Cl)c1)CCC2)c1ccccc1 [Example 6] | 30% | 81%
C[C@@H](CC(=O)N(Cc1nccn1C)c1ccc2c(c1)[C@@H](NS(=O)(=O)c1ccc(F)cc1)CCC2)c1ccccc1 [Example 9] | 53% | 61%
C[C@@H](CC(=O)N(Cc1nccn1C)c1ccc2c(c1)[C@H](NS(=O)(=O)c1ccccc1)CCC2)c1ccccc1 [Example 11] | 76% | 91%
C[C@H](CC(=O)N(Cc1nccn1C)c1ccc2c(c1)[C@@H](NS(=O)(=O)c1cccc(F)c1)CCC2)c1ccccc1 [Example 12] | 68% | 85%
C[C@@H](CC(=O)N(Cc1nccn1C)c1ccc2c(c1)[C@H](NS(=O)(=O)c1cccc(F)c1)CCC2)c1ccccc1 [Example 16] | 88% | 100%
C[C@@H](CC(=O)N(Cc1nccn1C)c1ccc2c(c1)[C@H](NS(=O)(=O)c1cccc(Cl)c1)CCC2)c1ccccc1 [Example 17] | 84% | 97%
COc1ccc(S(=O)(=O)N[C@H]2CCCc3ccc(N(Cc4nccn4C)C(=O)C[C@@H](C)c4ccccc4)cc32)cc1 [Example 18] | 72% | 84%
C[C@@H](CC(=O)N(Cc1nccn1C)c1ccc2c(c1)[C@H](NS(=O)(=O)c1cccs1)CCC2)c1ccccc1 [Example 19] | 53% | 79%
Cc1ncc(CN(C(=O)C[C@@H](C)c2ccccc2)c2ccc3c(c2)[C@@H](NS(=O)(=O)c2cccc(F)c2)CCC3)n1C(C)C [Example 20] | 52% | 64%
Cc1ncc(CN(C(=O)C[C@@H](C)c2ccccc2)c2ccc3c(c2)[C@@H](NS(=O)(=O)c2ccccc2)CCC3)n1C(C)C [Example 21] | 58% | 67%
Cc1cccc(CN(C(=O)C[C@@H](C)c2ccccc2)c2ccc3c(c2)[C@@H](NS(=O)(=O)c2ccccc2)CCC3)n1 [Example 23] | 75% | 90%
Cc1cccc(CN(C(=O)C[C@@H](C)c2ccccc2)c2ccc3c(c2)[C@@H](NS(=O)(=O)c2ccc(F)c(Cl)c2)CCC3)n1 [Example 24] | 48% | 65%
Cc1cccc(CN(C(=O)C[C@H](C)c2ccccc2)c2ccc3c(c2)[C@H](NS(=O)(=O)c2ccccc2)CCC3)n1 [Example 25] | 26% | 50%
C[C@@H](CC(=O)N(Cc1nccn1C)c1ccc2c(c1)[C@H](NS(=O)(=O)c1cccc(F)c1)CCC2)c1ccc(F)cc1 [Example 26] | 52% | 76%
